Laboratory results reported in patent US20210038587A1, “METHODS AND COMPOSITIONS FOR TREATING NON-ERK MAPK PATHWAY INHIBITOR-RESISTANT CANCERS” (BIOMED VALLEY DISCOVERIES, INC., priority 2013, published 2021).

Experiments:
RKO Parental = assay: Single agent proliferation assay (CellTiter-Glo, 96 h); type: cell-based
Experimental: (§1) For assessment of drug sensitivity in cell-line models of acquired resistance, drug sensitivity of dose-escalated A375 cells and isogenic RKO cells was assessed in 96-hour proliferation assays. […] For the A375 assays Alamar blue (ThermoFisher) 10% (v/v) was added and incubated for 4 h, and fluorescent product was then detected using a BMG FLUOstar.
(§2) Compounds were prepared from DMSO stocks to give the desired final concentrations. The final DMSO concentration was constant at 0.1%. […] CellTiter-Glo® reagent (Promega, Madison, Wis.) was added according to manufacturer's instructions and luminescence detected using the BMG FLUOstar plate reader (BMG Labtech, Ortenberg, Germany).

[1] = system: RKO MEK1 (Q56P/+) Clone 1; assay: as above; type: cell-based; conditions: RKO MEK1 Q56P/+ Cl.1
Experimental: as §1
(§3) RKO MEK1 Q56P Isogenic cells were produced by Horizon Discovery (Cambridge, UK; #HD 106-019) using a recombinant AAV-mediated gene targeting strategy. Briefly, rAAV virus was generated following transfection of the appropriate targeting vector and helper vectors in HEK293T cells, purified using an AAV purification kit (Virapur, San Diego, USA) and titrated using qPCR. Parental homozygous RKO cells (homozygous wild type for MEK1) were then infected with rAAV virus and clones that had integrated the selection cassette were identified by G418 selection and expanded. Correctly targeted clones that were heterozygous for knock-in of the MEK1 Q56P point mutation into a single allele were identified by PCR and sequencing.
as §2

[2] = system: RKO MEK1 (Q56P/+) Clone 2; assay: as above; type: cell-based; conditions: RKO MEK1 Q56P/+ Cl.2
Experimental: as §1, §3, §2

A375 = assay: Reverse Phase Protein Analysis (RPPA); type: cell-based, human; conditions: % change from DMSO (matched cell line)
Experimental: (§4) Control wells were treated with DMSO at 0.1% (v/v) for 6 hours prior to cell lysate generation. Samples were then analyzed using reverse-phase protein microarray technology (Theranostics Health).
(§5) Cell lines with common alterations in BRAF and RAS were assayed: BRAF^V600E mutant lines A375, Colo205, and HT29; KRAS^G12C-mutant cell line MIAPACa-2; KRAS^G13D-mutant cell line HCT116; and AN3Ca with atypical HRAS^F82L mutation. Changes in protein levels are shown as a percentage change from dimethyl sulfoxide (DMSO)-treated parental control (FIG. 32A and Table 23).

HCT116 = assay: Reverse Phase Protein Analysis (RPPA); type: cell-based, human; conditions: % change from DMSO (matched cell line)
Experimental: as §4, §5

O=C(Nc1ccc2[nH]nc(-c3ccncc3)c2c1)[C@@H]1CCN(CC(=O)N2CCN(c3ccc(-c4ncccn4)cc3)CC2)C1 [SCH772984]
IC50 (RKO Parental): 40 nM
IC50 [1]: 140 nM
IC50 [2]: 120 nM
Avg (4ebp1 T70) (A375): −31.75%
Avg (Akt S473) (A375): 58.13%
Avg (Akt) (A375): −23.26%
Avg (Bad S136) (A375): 5.32%
Avg (Bad S155) (A375): −13.86%
Avg (Bak) (A375): −2.37%
Avg (Bax) (A375): −17.32%
Avg (Bcl 2) (A375): −18.53%
Avg (Bcl2 S70) (A375): −12.91%
Avg (Bcl 2 T56) (A375): −19.55%
Avg (Bim) (A375): 17.52%
Avg (CREB S133) (A375): −1.55%
Avg (Caspase 3 CL D175) (A375): −9.87%
Avg (Caspase 7 Cl D198) (A375): −6%
Avg (Chk1) (A375): 2.83%
Avg (Chk1 S345) (A375): −10.59%
Avg (Cyclin D1) (A375): −84.05%
Avg (ERK 1 2) (A375): −21.65%
Avg (ERK 1 2 T202 Y204) (A375): −90.63%
Avg (MAK1 S360) (A375): 0.97%
Avg (Mcl1) (A375): 2.11%
Avg (Raptor S792) (A375): −6.89%
Avg (Raptor) (A375): −11.66%
Avg (Rictor) (A375): −22.13%
Avg (Stat1) (A375): −6.01%
Avg (Stat3) (A375): −1.42%
Avg (bad S112) (A375): −71.44%
Avg (c Fos) (A375): −12.51%
Avg (c Myc) (A375): 1.86%
Avg (mTOR S2448) (A375): −26.17%
Avg (mTOR S2481) (A375): −15.82%
Avg (mTOR) (A375): −5.18%
Avg (p70 S6 Kinase) (A375): −17.66%
Avg (p90 RSK S380) (A375): −72.44%
Avg(S6 Ribo Prot S235 236) (A375): −94.71%
Avg(S6 Ribo Prot S240 244) (A375): −91.78%
Avg(Tuberin TSC2 Y1571) (A375): −13.7%
Avg(p70 S6 Kinase S371 S394) (A375): −28.72%
Avg(p70 S6 Kinase T389 T412) (A375): −42.73%
Avg (4ebp1 T70) (HCT116): 5.6%
Avg (Akt S473) (HCT116): −8.76%
Avg (Akt) (HCT116): −9.86%
Avg (Bad S136) (HCT116): −10.55%
Avg (Bad S155) (HCT116): −22.96%
Avg (Bak) (HCT116): −4.66%
Avg (Bax) (HCT116): −13.86%
Avg (Bcl 2) (HCT116): −10.58%
Avg (Bcl2 S70) (HCT116): −18.34%
Avg (Bcl 2 T56) (HCT116): −15.89%
Avg (Bim) (HCT116): 1.95%
Avg (CREB S133) (HCT116): −24.18%
Avg (Caspase 3 CL D175) (HCT116): −4.63%
Avg (Caspase 7 Cl D198) (HCT116): −16.35%
Avg (Chk1) (HCT116): −5.58%
Avg (Chk1 S345) (HCT116): −18.51%
Avg (Cyclin D1) (HCT116): −73.21%
Avg (ERK 1 2) (HCT116): −10.22%
Avg (ERK 1 2 T202 Y204) (HCT116): −75.21%
Avg (MAK1 S360) (HCT116): −15.32%
Avg (Mcl1) (HCT116): −6.55%
Avg (Raptor S792) (HCT116): −18.18%
Avg (Raptor) (HCT116): −9.66%
Avg (Rictor) (HCT116): −18.5%
Avg (Stat1) (HCT116): −10.74%
Avg (Stat3) (HCT116): −7.67%
Avg (bad S112) (HCT116): −31.29%
Avg (c Fos) (HCT116): −15.27%
Avg (c Myc) (HCT116): −12.86%
Avg (mTOR S2448) (HCT116): −16.05%
Avg (mTOR S2481) (HCT116): −22.53%
Avg (mTOR) (HCT116): −12.56%
Avg (p70 S6 Kinase) (HCT116): −14.12%
Avg (p90 RSK S380) (HCT116): −33.7%
Avg(S6 Ribo Prot S235 236) (HCT116): −93.86%
Avg(S6 Ribo Prot S240 244) (HCT116): −91.07%
Avg(Tuberin TSC2 Y1571) (HCT116): −16.17%
Avg(p70 S6 Kinase S371 S394) (HCT116): −12.3%
Avg(p70 S6 Kinase T389 T412) (HCT116): −24.63%

Cn1nccc1Nc1nccc(-c2ccn([C@H](CO)c3ccc(Cl)c(F)c3)c(=O)c2)n1 [GDC-0994]
Avg (4ebp1 T70) (A375): −29.47%
Avg (Akt S473) (A375): 53.66%
Avg (Akt) (A375): −20.7%
Avg (Bad S136) (A375): −6.21%
Avg (Bad S155) (A375): −13.31%
Avg (Bak) (A375): 2.76%
Avg (Bax) (A375): 3.97%
Avg (Bcl 2) (A375): −3.13%
Avg (Bcl2 S70) (A375): 6.3%
Avg (Bcl 2 T56) (A375): −4.1%
Avg (Bim) (A375): 9.8%
Avg (CREB S133) (A375): −1.18%
Avg (Caspase 3 CL D175) (A375): −16.74%
Avg (Caspase 7 Cl D198) (A375): −5.53%
Avg (Chk1) (A375): −7.72%
Avg (Chk1 S345) (A375): −18.35%
Avg (Cyclin D1) (A375): −81.65%
Avg (ERK 1 2) (A375): 31.55%
Avg (ERK 1 2 T202 Y204) (A375): 142.37%
Avg (MAK1 S360) (A375): −5.21%
Avg (Mcl1) (A375): −9.09%
Avg (Raptor S792) (A375): −15.93%
Avg (Raptor) (A375): −14.32%
Avg (Rictor) (A375): −23.29%
Avg (Stat1) (A375): −5.67%
Avg (Stat3) (A375): 14.24%
Avg (bad S112) (A375): −55.32%
Avg (c Fos) (A375): −12.46%
Avg (c Myc) (A375): −9.11%
Avg (mTOR S2448) (A375): −23.61%
Avg (mTOR S2481) (A375): −19.37%
Avg (mTOR) (A375): −6.2%
Avg (p70 S6 Kinase) (A375): −18.11%
Avg (p90 RSK S380) (A375): −60.74%
Avg(S6 Ribo Prot S235 236) (A375): −87.61%
Avg(S6 Ribo Prot S240 244) (A375): −80.3%
Avg(Tuberin TSC2 Y1571) (A375): −16.74%
Avg(p70 S6 Kinase S371 S394) (A375): −17.34%
Avg(p70 S6 Kinase T389 T412) (A375): −31.9%
Avg (4ebp1 T70) (HCT116): 20.5%
Avg (Akt S473) (HCT116): 4.69%
Avg (Akt) (HCT116): −6.13%
Avg (Bad S136) (HCT116): −1.24%
Avg (Bad S155) (HCT116): −19.71%
Avg (Bak) (HCT116): −1.74%
Avg (Bax) (HCT116): −20.11%
Avg (Bcl 2) (HCT116): −4.56%
Avg (Bcl2 S70) (HCT116): −12.53%
Avg (Bcl 2 T56) (HCT116): −11.96%
Avg (Bim) (HCT116): 6.2%
Avg (CREB S133) (HCT116): −8.56%
Avg (Caspase 3 CL D175) (HCT116): −8.36%
Avg (Caspase 7 Cl D198) (HCT116): −13.99%
Avg (Chk1) (HCT116): 2.28%
Avg (Chk1 S345) (HCT116): −18.77%
Avg (Cyclin D1) (HCT116): −63.59%
Avg (ERK 1 2) (HCT116): −1.9%
Avg (ERK 1 2 T202 Y204) (HCT116): 526.64%
Avg (MAK1 S360) (HCT116): −12.93%
Avg (Mcl1) (HCT116): −4.77%
Avg (Raptor S792) (HCT116): −15.77%
Avg (Raptor) (HCT116): −6.2%
Avg (Rictor) (HCT116): −10.98%
Avg (Stat1) (HCT116): −6.32%
Avg (Stat3) (HCT116): −0.25%
Avg (bad S112) (HCT116): −12.36%
Avg (c Fos) (HCT116): −10.36%
Avg (c Myc) (HCT116): −12.03%
Avg (mTOR S2448) (HCT116): −19.33%
Avg (mTOR S2481) (HCT116): −18.34%
Avg (mTOR) (HCT116): −4.85%
Avg (p70 S6 Kinase) (HCT116): −9.9%
Avg (p90 RSK S380) (HCT116): −22.25%
Avg(S6 Ribo Prot S235 236) (HCT116): −94.82%
Avg(S6 Ribo Prot S240 244) (HCT116): −95.1%
Avg(Tuberin TSC2 Y1571) (HCT116): −9.4%
Avg(p70 S6 Kinase S371 S394) (HCT116): −11.47%
Avg(p70 S6 Kinase T389 T412) (HCT116): −24.73%
